According to patent US20090203778A1, “FATTY ACID ANALOGUES, I.E. INCLUDING DHA DERIVATIVES FOR USES AS A MEDICAMENT” (priority 2005, published 2009):

How the values were obtained:
[1] = system: adipose prone mice of the C57BL/6J strain; experiment: Animal model of metabolic syndrome, adipose prone mice on high-fat diet, 4 months of dietary interventions; type: in vivo; details: for Body weight / Body wt. gain / NEFA / Insulin / TAGs: 4 months; for AUCglucose: intraperitoneal glucose tolerance test; for Insulin: plasma; for TAGs: serum
Method: An animal model of the metabolic syndrome using the adipose prone mice of the C57BL/6J strain was used to document effects on typical laboratory and pathological anatomical features common for the metabolic syndrome. When given a high fat diet containing about 60% of fat, the animals are getting obese developing high insulin plasma levels, pathological glucose tolerance test, elevated serum triglycerides and non-esterified fatty acids, and fat liver. All experiments were performed on male C57BL/6 mice, either a substrain C57BL/N (supplier: Charles River, Germany, n=160, experiments A-C, see below), or a substrain C57BL/6J (supplier: the Jackson laboratory, Bar Harbor, Me., USA, n=32, experiment D). Total numbers of animals used were higher (n=170 and 36, respectively), because of culling. In the latter case, animals were bred for several generations (<20) at the Institute of Physiology. At the beginning of the treatment, animals were 14-week-old and their body weight range was 23.6-27.1 g. One week before the study start, animals were sorted according to their body weight and assigned to subgroups (n=8) of similar mean body weight. […] The animals eliminated from the study at this stage were sacrificed by cervical dislocation. Complete health check of mice was performed by the supplier Charles River and at the start of study serological tests were performed by ANLAB (Prague, Czech Republic). In addition, regular health checks were performed in the animal house in 3-mo-intervals using sentinel mice and serological examinations (ANLAB). In all the tests, the animals were free of specific pathogens. […] All these compounds were in the form of ethyl esters, provided by Pronova Biocare a.s. in sealed containers. Chemical composition of the PRB-compounds was unknown to the laboratory performing the experiments (Institute of Physiology, Academy of Sciences Prague, Czech Republic). After arrival, the PRB-compound were stored in a refrigerator in original containers. The containers were opened just before preparation of the experimental diets. Diets were kept in plastic bags flushed by nitrogen and stored at −70° C. in small aliquots sufficient for feeding animals for one week. Fresh ratios were given in 2-day intervals or daily. The study was based on 4 individual experiments. […] In each experiment, a subgroup of plain cHF diet-fed mice was included and served as a control. Mice were caged in groups of 4 and fed standard chow diet until 3 mo of age, when animals (n=8-13) were randomly assigned to the different test diets. […] Animals were sacrificed after 4 months on the experimental diets, at 7 mo of age, and the end-point analysis were performed.

[2] = Analysis of intracellular free (non-esterified) fatty acids in liver of animals fed PRB-1; type: in vivo, mice; details: liver tissue, 1.5% of the fat content in diet for 8 weeks
Method: Liver tissue from animals fed PRB-1 was analysed with respect to free unesterified fatty acids. The animals were recruited from Experiment 4 (pharmacodynamic effects of DHA derivatives in an animal model of metabolic syndrome). The animals had been given DHA (15% of fat content of the diet) or the DHA-derivative (1.5% of the fat content in their diet) for 8 weeks and were supposed to be in a steady-state situation with stable levels of DHA and the DHA-derivative intracellularly. Liver tissue was chosen due to the fact that the metabolisation rate is very high in liver.
The liver samples were homogenized in cold PBS buffer, and extracted immediately with chloroform:methanol (2:1) containing 0.2 mM butylated hydroxytoluene (BHT) using cis-10-heptadecenoic acid as internal standard. […] Total protein content was measured using Bio-Rad method after homogenization.
Agilent 1100 system was used for reverse phase column (Supelco Ascentis C18 column, 25 cm×4.6 mm, i.d. 5 μm) separation within 22 min. […] The column elute was identified and quantified in the negative electrospray ionisation applying multiple reaction monitoring mode by triple tandem quadrapole mass/mass (ABI Qtrap-4000). […] The quadratic regression standard curve was used for quantification after internal standard calibration.

[3] = target: T1, PPARγ (Homo sapiens, UniProt P37231); experiment: Affinity testing in transfected cells (luciferase release); type: cell-based; details: 10 μM, FIG. 3
T1 construct: For full length PPAR transfection studies, each well received 5 μg reporter construct; expressed in transfected cells; host or cells: COS-1 cells (adipocytes transfected with pSG5-PPARγ are also described)
T1 sequence (P37231 1-505): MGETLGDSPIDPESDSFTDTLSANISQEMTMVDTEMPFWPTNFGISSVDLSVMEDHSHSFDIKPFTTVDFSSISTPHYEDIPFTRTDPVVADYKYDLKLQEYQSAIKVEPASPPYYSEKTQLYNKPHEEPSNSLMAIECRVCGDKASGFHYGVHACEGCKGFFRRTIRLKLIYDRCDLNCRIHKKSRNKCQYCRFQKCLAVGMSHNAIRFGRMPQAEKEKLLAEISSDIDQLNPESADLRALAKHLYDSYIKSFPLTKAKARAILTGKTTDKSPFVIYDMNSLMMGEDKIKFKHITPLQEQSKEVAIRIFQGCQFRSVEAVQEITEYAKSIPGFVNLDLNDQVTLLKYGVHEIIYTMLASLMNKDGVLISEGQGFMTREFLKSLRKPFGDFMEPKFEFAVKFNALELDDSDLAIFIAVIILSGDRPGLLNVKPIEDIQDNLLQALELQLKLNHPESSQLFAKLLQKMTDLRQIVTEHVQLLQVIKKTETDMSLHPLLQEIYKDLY
Method: Release of luciferase is correlated to transcription of genes. Binding of a ligand to a nuclear receptor such as PPARγ induces transcription of the respective gene thereby releasing luciferase. This technique therefore provides a measure of ligand affinity to the receptor as well as activation of the responsible gene.
Transient transfection of COS-1 cells was performed in 6-well plates as described by Graham and van der Eb (Graham). For full length PPAR transfection studies, each well received 5 μg reporter construct, 2.5 μg pSV-β-galactosidase as an internal control, 0.4 μg pSG5-PPARγ2. The cells were harvested after 72 h, and the luciferase activity was measured according to the protocol (Promega). The luciferase activity was normalised against β-galactosidase activity. The adipocytes were transfected at D11 of differentiation using 16 μL LipofectaminPlus reagent, 4 μl Lipofectamine (Life Technologies Inc.), 0.2 μg pSG5-PPARγ, and 100 ng pTK Renilla luciferase as control of transfection afficiency. […] The luciferase activities were measured as recommended by the manufacturer (Dual Luciferase assay, Promega). […]
Fatty acids (BRL or DHA) and PRB-1 (stock solutions) were solubilized to 0.1 M final concentration in DMSO. […] Luciferase activity was measured using a luminometer (TD-20/20 luminometer; Turner Designs, Sunnycvale, Calif.) and normalized against protein content.

[4] = system: liver steatosis in mice fed high fat diet; experiment: Testing of DHA derivatives on liver fat (histology); type: in vivo; details: eosin-hematoxylin stained liver
Source text: Tissue samples from animals in the experiments with DHA derivatives was histologically analysed. After paraffination, tissue samples from liver, adipose tissue, skeletal muscle, pancreas, and kidney were stained with eosin-hematoxylin.

[5] = 0.15% of fat content of cHF diet
[6] = 0.5% of fat content of cHF diet
[7] = 1.5% of fat content of cHF diet

SMILES | Fasted glucose [1, 5] [mg/dL] | Body weight [1, 5] [grams] | NEFA [1, 5] [mmol/L] | AUCglucose [1, 5] [mM × 180 min] | TAGs [1, 5] [mmol/L] | Fasted glucose [1, 6] [mg/dL] | Body weight [1, 6] [grams] | Body wt. gain [1, 6] [grams] | NEFA [1, 6] [mmol/L] | AUCglucose [1, 6] [mM × 180 min] | Insulin [1, 6] [ng/mL] | TAGs [1, 6] [mmol/L] | Fasted glucose [1, 7] [mg/dL] | Body weight [1, 7] [grams] | Body wt. gain [1, 7] [grams] | NEFA [1, 7] [mmol/L] | TAGs [1, 7] [mmol/L] | also measured
CC/C=C\C/C=C\C/C=C\C/C=C\C/C=C\C/C=C\CCC(=O)O [DHA, (all-Z)-4,7,10,13,16,19-docosahexaenoic acid] | 141 ± 10 | 48.3 ± 0.6 | 0.96 ± 0.07 | 1477 ± 214 | 1.50 ± 0.13 | 136 ± 8 | 46.9 ± 0.7 | 22.9 ± 0.7 | 0.89 ± 0.03 | 1816 ± 182 | 5.82 ± 0.47 | 1.78 ± 0.08 | 138 ± 7 | 47.1 ± 0.7 | 23.0 ± 0.8 | 0.98 ± 0.07 | 1.91 ± 0.26 | Body wt. gain [1, 5]: 24.3 ± 0.8 grams; Insulin [1, 5]: 4.31 ± 0.39 ng/mL; AUCglucose [1, 7]: 2132 ± 288 mM × 180 min; Insulin [1, 7]: 6.55 ± 0.31 ng/mL
CC/C=C\C/C=C\C/C=C\C/C=C\C/C=C\C/C=C\CC(C)C(=O)OCC (stereo not drawn) [PRB-1, α-methyl DHA EE] | 126 ± 15 | 47.2 ± 1.3 | 0.62 ± 0.04 | 1291 ± 172 | 1.75 ± 0.08 | 131 ± 7 | 47.4 ± 0.6 | 23.8 ± 0.5 | 0.73 ± 0.04 | 1596 ± 205 | 3.93 ± 0.59 | 2.03 ± 0.22 | 130 ± 14 | 44.0 ± 1.5 | 20.2 ± 1.3 | 0.63 ± 0.03 | 1.58 ± 0.08 | concentration of the DHA-derivative (free unesterified fatty acid) in the liver cells [2]: about 10 μg per g of total amount of protein; release of luciferase from transfected cells [3]: high release of luciferase; degree of fat liver (liver steatosis), histology [4]: low degree of fat liver
